Data: US11685761B2, “Cyclic di-nucleotide compounds as sting agonists” (Merck Sharp & Dohme Corp., priority 2017, dated 2023)

Columns and labels:
full-length HAQ STING = biological target: T1, full-length HAQ STING (Homo sapiens, UniProt Q86WV6, G230A/H232R/R293Q/R71H); assay: 3H-cGAMP filtration binding assay (HAQ STING); conditions: competition with tritiated cGAMP ligand; T. ni cell membranes overexpressing full-length HAQ STING
T1 construct: made in house; host or cells: Trichoplusia ni (Hi-Five) insect cells, baculovirus generated in Sf21; crude membranes
T1 sequence (Q86WV6 with tags, fused parts or gaps R71H/G230A/H232R/R293Q): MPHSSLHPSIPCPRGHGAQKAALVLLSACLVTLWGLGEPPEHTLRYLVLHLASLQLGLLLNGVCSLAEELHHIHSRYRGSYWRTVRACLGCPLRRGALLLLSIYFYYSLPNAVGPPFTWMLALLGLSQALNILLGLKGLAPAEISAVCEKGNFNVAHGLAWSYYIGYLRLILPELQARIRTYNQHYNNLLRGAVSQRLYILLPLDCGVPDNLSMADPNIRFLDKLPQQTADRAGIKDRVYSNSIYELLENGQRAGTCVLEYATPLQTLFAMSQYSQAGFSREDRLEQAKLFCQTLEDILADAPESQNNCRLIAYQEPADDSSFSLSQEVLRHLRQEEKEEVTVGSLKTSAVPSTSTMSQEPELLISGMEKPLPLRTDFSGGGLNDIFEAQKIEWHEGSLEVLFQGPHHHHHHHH
Excerpt: The ability of compounds to bind STING is quantified by the ability to compete with tritiated cGAMP ligand for human STING receptor membrane using a radioactive filter-binding assay. The binding assay employs STING receptor obtained from Hi-Five cell membranes overexpressing full-length HAQ STING prepared in-house and tritiated cGAMP ligand also purified in-house.
(§1) The ability of compounds to bind STING is quantified by their ability to compete with tritiated cGAMP ligand for human STING receptor membrane using a radioactive filter-binding assay. The binding assay employs STING receptor obtained from Trichoplusia ni cell membranes (T. ni; Expression Systems, cat #94-002F, www.expressionsystems.com) overexpressing full-length HAQ STING and tritiated cGAMP ligand.
The basic HAQ STING filtration assay protocol is as follows:
The compounds were serially titrated by the Hamilton STARPlus CORE in a 96-well plate (Greiner, #651201) using a 1:3 ten-point dose response format. […] 148 uL of prepared membrane was then manually added to each well of a 96-well deep-well polypropylene plate (Fisher Scientific, #12-566-121). Following membrane addition, 2 uL of either titrated test compound, DMSO control (Sigma #276855), or cold cGAMP control was added to the appropriate wells using a BIOMEK FX. Compound and membrane then preincubated for 60 min at RT to allow compound binding to equilibrate. Following equilibration, 8 nM of [^3H] c-GAMP ligand was prepared by diluting into assay buffer, and 50 uL of this working stock was then manually added to each well of the assay plate. Plates were then incubated at RT for 60 min, and the contents of each assay plate were then filtered through a 96-well GF/B filter plate (PerkinElmer, #6005250) using a TOMTEC MACH III Cell Harvester equipped with 20 mM HEPES buffer (Fisher Scientific, #BP299500). The filter plates were then dried at 55° C. for 30 min using a pressurized oven before 30 uL of ULTIMA GOLD F scintillate was added to each well. Tritium levels for each reaction well were then measured using a PerkinElmer TopCount plate reader.
(§2) After normalization to controls, the percent activity for each compound concentration was calculated by measuring the amount of remaining radioactivity. The plot of percent activity versus the log of compound concentration was fit with a 4-parameter dose response equation to calculate EC50 values.

full-length WT STING = biological target: T2, full-length WT STING (Homo sapiens, UniProt Q86WV6, H232R); assay: 3H-cGAMP filtration binding assay (WT STING); conditions: competition with tritiated cGAMP ligand; T. ni cell membranes overexpressing full-length WT STING
T2 construct: made in house; host or cells: Trichoplusia ni insect cells, baculovirus generated in Sf21; crude membranes
T2 sequence (Q86WV6 with tags, fused parts or gaps H232R): as the sequence (Q86WV6 with tags, fused parts or gaps R71H/G230A/H232R/R293Q) above, with H71R, A230G, Q293R counted along it
Description: as §1, with “WT” for “HAQ”
The basic WT STING filtration assay protocol is as follows:
16 nM of [^3H] c-GAMP ligand was prepared by diluting into assay buffer, and 50 uL of this working stock was manually added to each well of the assay plate. After ligand addition, 2 uL of either titrated test compound, DMSO control (Sigma #276855), or cold cGAMP control was added to the appropriate wells using a BIOMEK FX. The serially titrated compound was prepared on a Hamilton STARPlus CORE in a 96-well plate (Greiner, #651201) using a 1:3 ten-point dose response format. Following compound addition, a 2.2 ug/ml working concentration of STING membrane (SEQ. ID. No. 3) was prepared by diluting concentrated membrane into assay buffer (1×PBS; Invitrogen #SH30028.02) and douncing 7× using a manual tissue homogenizer (Wheaton, #357546). 148 uL of this prepared membrane was then manually added to each well of a 96-well deep-well polypropylene plate (Fisher Scientific, #12-566-121). Compound, ligand, and membrane then incubated for 60 min at RT before the contents of each assay plate were filtered through a 96-well GF/B filter plate (PerkinElmer, #6005250) using a TOMTEC MACH III Cell Harvester equipped with 20 mM HEPES buffer (Fisher Scientific, #BP299500). The filter plates were then dried at 55° C. for 30 min using a pressurized VWR oven before 30 uL of ULTIMA GOLD F scintillate was added to each well. Tritium levels for each reaction well were then measured using a PerkinElmer TopCount plate reader.
as §2

[1] = test system: IFN-β secretion from THP1 cells; assay: IFN-β secretion in THP1 cell culture (5 h); type: cell-based, human; conditions: THP1 cells, 5 h incubation, compound at 30 μM, 30 uM cGAMP = 100%; for activation at 30 µM: Homo sapiens, THP-1, 5 h, read-out: % Effect at 30 μM relative to 2′3′-cGAMP
Description: The ability of compounds to stimulate the secretion of interferon-beta from THP1 cells was measured using a human IFN-β AlphaLISA kit (Perkin Elmer, Cat. No. AL265F). The basic protocol is as follows:
The cell viability and count was ascertained using a Beckman Coulter V-Cell XR cell counter. The cell suspension was centrifuged at 200×g for 5 min at RT. Cells were resuspended to a density of 0.8×10^6/mL in 37° C. assay medium. Subsequent liquid transfers were performed using either a Matrix electronic multichannel pipette or an Agilent Bravo Automated Liquid Handling Platform.
The assay was started by dispensing 40 μL of the previously prepared cell suspension into the wells of the plate containing compounds. After 5 h incubation at 37° C., 5% CO2 in a humidified atmosphere, the plate of cells and compounds was centrifuged at 200×g for 5 min at RT. […] To these supernatant-containing wells was added 10 μL of 5× Anti-Analyte Acceptor beads (50 μg/mL of AlphaLISA HiBlock Buffer) and incubated for 30 min at RT while shaking on an orbital plate shaker. To each well was added 10 μL of 5× Biotinylated Antibody Anti-analyte (5 nM in AlphaLISA HiBlock Buffer) and incubated on an orbital plate shaker for 60 min at RT or overnight at 4° C. To each well was added 25 μL of 2× SA-Donor beads (80 μg/mL in AlphaLISA HiBlock Buffer) and incubated for 30-45 min at RT in the dark while shaking on an orbital plate shaker. The plate was then read on a Perkin Elmer Envision (λex680 nm, λem=570 nm). The percent effect of the AlphaLISA signal at each compound concentration was calculated based on 30 uM cGAMP positive controls and 0.3% DMSO negative controls. The plot of percent effect versus the log of compound concentration was fit with a 4-parameter concentration response equation to calculate EC50 values.
Compounds of the disclosure were evaluated for IFN-β secretion in THP1 cell culture as described above.

Structure (SMILES)	EC50 (full-length HAQ STING) [nM]	EC50 (full-length WT STING) [nM]	activation at 30 µM [1] [%]	% Effect at 30 μM relative to 2′3′-cGAMP [1] [%]
Nc1ncnc2c1ncn2[C@@H]1O[C@@H]2CO[P@@](=O)(S)O[C@@H]3[C@H](O)[C@@H](CO[P@@](=O)(S)O[C@H]2[C@H]1O)O[C@H]3n1ccc(=O)n2ccnc12 (single isomer, unassigned) [Example 1]	77	1640	143	
Nc1ncnc2c1ncn2[C@@H]1O[C@@H]2COP(=O)(S)O[C@@H]3[C@H](O)[C@@H](COP(=O)(S)O[C@H]2[C@@H]1F)O[C@H]3n1cnc2c(=O)n3cc[nH]c3nc21 (single isomer, unassigned) [Example 15]		43		318
Nc1ncnc2c1ncn2[C@@H]1O[C@@H]2COP(=O)(S)O[C@@H]3[C@H](O)[C@@H](COP(=O)(S)O[C@H]2[C@@H]1F)O[C@H]3n1cnc2c(=O)n3cc[nH]c3nc21 (single isomer, unassigned) [Example 16]		90		281
Nc1ncnc2c1ncn2[C@@H]1O[C@@H]2CO[P@@](=O)(S)O[C@@H]3C[C@@H](CO[P@](=O)(S)O[C@H]2[C@@H]1F)O[C@H]3n1ccc(=O)n2ccnc12 (single isomer, unassigned) [Example 20]	15	83	169	
Nc1nc2c(nnn2[C@@H]2S[C@@H]3COP(=O)(S)O[C@H]4[C@H](F)[C@H](n5ccc6c(=O)[nH]cnc65)O[C@@H]4COP(=O)(S)O[C@@H]2[C@@H]3F)c(=O)[nH]1 (single isomer, unassigned) [Example 49]	1	756		163
Nc1ncnc2c1ncn2[C@@H]1O[C@@H]2CO[P@@](=O)(S)O[C@@H]3[C@H](O)[C@@H](CO[P@](=O)(S)O[C@H]2[C@H]1O)O[C@H]3n1ccc(=O)n2ccnc12 [Example 2, 8-[(2S,5R,7R,8R,10R,12aR,14R,15R,15aS,16R)-14-(6-amino-9H-purin-9-yl)-15,16-dihydroxy-2,10-dioxido-2,10-disulfanyloctahydro-12H-5,8-methanofuro[3,2-l][1,3,6,9,11,2,10]pentaoxadiphospha-cyclotetradecin-7-yl]imidazo[1,2-a]pyrimidin-5(8H)-one]	2	32	44	
Nc1ncnc2c1ncn2[C@@H]1O[C@@H]2COP(=O)(S)O[C@@H]3[C@H](O)[C@@H](COP(=O)(S)O[C@H]2[C@@H]1F)O[C@H]3n1cnc2c(=O)n3c(nc21)NC(=O)C3 (stereo partly drawn) [Example 14, 3-[(5R,7R,8R,12aR,14R,15S,15aR,16R)-14-(6-amino-9H-purin-9-yl)-15-fluoro-16-hydroxy-2,10-dioxido-2,10-disulfanyloctahydro-12H-5,8-methanofuro[3,2-l][l,3,6,9,11,2,10]pentaoxadiphosphacyclotetradecin-7-yl]-3H-imidazo[1,2-a]purine-6,9(5H,7H)-dione]		433	12	

Second part, led by results:

EC50 (full-length HAQ STING) [nM]	EC50 (full-length WT STING) [nM]	Structure (SMILES)	activation at 30 µM [1] [%]	% Effect at 30 μM relative to 2′3′-cGAMP [1] [%]
1	393	Nc1nc2c(ncn2[C@@H]2O[C@@H]3CO[P@@](=O)(S)O[C@H]4C[C@H](n5ccc6c(=O)[nH]cnc65)O[C@@H]4CO[P@@](=O)(S)O[C@@H]2C3)c(=O)[nH]1 (single isomer, unassigned) [Example 38]	109	
5	2830	Nc1nc2c(ncn2[C@@H]2O[C@@H]3COP(=O)(S)O[C@H]4[C@H](F)[C@H](n5ccc6c(=O)[nH]cnc65)O[C@@H]4COP(=O)(S)O[C@@H]2[C@@H]3F)c(=O)[nH]1 (single isomer, unassigned) [Example 40]		150
1	46	Nc1nc2c(nnn2[C@@H]2O[C@@H]3COP(=O)(S)O[C@H]4C[C@H](n5ccc6c(=O)[nH]cnc65)O[C@@H]4COP(=O)(S)O[C@@H]2C3)c(=O)[nH]1 (single isomer, unassigned) [Example 42]		72
37	148	Nc1nc2c(nnn2[C@@H]2O[C@@H]3COP(=O)(S)O[C@H]4C[C@H](n5ccc6c(=O)[nH]cnc65)O[C@@H]4COP(=O)(S)O[C@@H]2C3)c(=O)[nH]1 (single isomer, unassigned) [Example 43]		120
16	2400	Nc1ncnc2c1ncn2[C@@H]1O[C@@H]2COP(=O)(S)O[C@H]3[C@H](F)[C@H](n4ccc5c(=O)[nH]cnc54)O[C@@H]3COP(=O)(S)O[C@@H]1C2 (single isomer, unassigned) [Example 46]		166
4	9130	Nc1nc2c(nnn2[C@@H]2S[C@@H]3COP(=O)(S)O[C@H]4[C@H](F)[C@H](n5ccc6c(=O)[nH]cnc65)O[C@@H]4COP(=O)(S)O[C@@H]2[C@@H]3F)c(=O)[nH]1 (single isomer, unassigned) [Example 50]		109
167	253	Nc1nc2c(ncn2[C@@H]2O[C@@H]3COP(=O)(S)O[C@H]4C[C@H](n5cc(F)c6c(=O)[nH]cnc65)O[C@@H]4COP(=O)(S)O[C@@H]2[C@@H]3F)c(=O)[nH]1 (single isomer, unassigned) [Example 53]	85	
